Laboratory results: patent publication US10781211B2, “Spirocycle compounds and methods of making and using same” (Lundbeck La Jolla Research Center, Inc., priority 2016, dated 2020)

How the values were obtained:
Assay type in all cases: in vivo
Conditions in all cases: 5 mg/kg oral gavage
MAGL = MAGL (Mus musculus (Mouse), UniProt O35678); assay: Mouse brain proteomes from inhibitor treated mice (oral gavage, sacrifice 4 h after administration, ABPP analysis)
Outline: (§1)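 Values give % inhibition in brain after a 5 mg/kg oral gavage dose to wild-type C57Bl/6J mice, with vehicle e.g. PEG400/Ethanol/PBS (7/2/1). Animals were killed 4 h post-dose and brain proteome activity was read by ABPP.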

FAAH = FAAH (Mus musculus (Mouse), UniProt O08914); assay: Mouse brain proteomes from inhibitor treated mice (oral gavage, sacrifice 4 h after administration, ABPP analysis), FAAH
Outline: as §1

ABHD6 = ABHD6 (Mus musculus (Mouse), UniProt Q8R2Y0); assay: Mouse brain proteomes from inhibitor treated mice (oral gavage, sacrifice 4 h after administration, ABPP analysis), ABHD6
Outline: as §1

FAAH, sequence (O08914 whole entry): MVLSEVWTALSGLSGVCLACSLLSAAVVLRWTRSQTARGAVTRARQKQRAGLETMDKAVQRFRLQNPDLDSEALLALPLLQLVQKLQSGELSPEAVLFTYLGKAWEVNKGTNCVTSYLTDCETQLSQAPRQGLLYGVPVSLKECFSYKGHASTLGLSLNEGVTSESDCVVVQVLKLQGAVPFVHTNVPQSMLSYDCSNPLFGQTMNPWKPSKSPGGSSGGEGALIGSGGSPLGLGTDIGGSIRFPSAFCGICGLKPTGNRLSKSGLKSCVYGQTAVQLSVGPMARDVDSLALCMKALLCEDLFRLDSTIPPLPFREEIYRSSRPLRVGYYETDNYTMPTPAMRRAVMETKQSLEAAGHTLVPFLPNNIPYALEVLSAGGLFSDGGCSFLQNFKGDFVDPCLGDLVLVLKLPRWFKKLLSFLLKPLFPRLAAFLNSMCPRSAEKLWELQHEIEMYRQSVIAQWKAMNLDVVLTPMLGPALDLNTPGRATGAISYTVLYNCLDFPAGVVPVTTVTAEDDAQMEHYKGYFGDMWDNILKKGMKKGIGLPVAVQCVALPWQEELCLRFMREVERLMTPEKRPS
ABHD6, sequence (Q8R2Y0 whole entry): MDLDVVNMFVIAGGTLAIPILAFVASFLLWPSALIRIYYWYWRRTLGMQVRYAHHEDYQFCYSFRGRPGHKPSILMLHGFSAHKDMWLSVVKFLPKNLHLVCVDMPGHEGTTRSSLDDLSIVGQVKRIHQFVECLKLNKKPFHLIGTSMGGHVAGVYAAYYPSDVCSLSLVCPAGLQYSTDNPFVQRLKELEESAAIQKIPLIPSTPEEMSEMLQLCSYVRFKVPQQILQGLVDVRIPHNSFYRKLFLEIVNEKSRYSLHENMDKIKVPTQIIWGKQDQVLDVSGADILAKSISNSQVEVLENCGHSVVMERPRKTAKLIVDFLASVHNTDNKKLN
MAGL, sequence (O35678 whole entry): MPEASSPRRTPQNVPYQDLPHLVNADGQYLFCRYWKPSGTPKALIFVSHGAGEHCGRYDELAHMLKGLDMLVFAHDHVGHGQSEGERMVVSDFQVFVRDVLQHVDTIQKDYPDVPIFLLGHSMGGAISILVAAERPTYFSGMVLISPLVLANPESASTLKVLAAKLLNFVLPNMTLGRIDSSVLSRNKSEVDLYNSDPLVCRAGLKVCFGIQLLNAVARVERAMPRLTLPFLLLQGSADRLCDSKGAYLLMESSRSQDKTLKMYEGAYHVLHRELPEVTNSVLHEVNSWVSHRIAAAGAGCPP

Row | Structure (SMILES) | MAGL % Inh 5 mg/kg (mouse) (MAGL) | FAAH % Inh 5 mg/kg (mouse) (FAAH) | ABHD6 % Inh 5 mg/kg (mouse) (ABHD6)
1 | O=C(OC(C(F)(F)F)C(F)(F)F)N1CCC2(CCN(Cc3ccc(C(F)(F)F)cc3N3CCOCC3)C2)CC1 [Example 22, 1,1,1,3,3,3-Hexafluoropropan-2-yl 2-(2-morpholino-4-(trifluoromethyl)benzyl)-2,8-diazaspiro[4.5]decane-8-carboxylate] | ### (### is ≥ 75%) | # (# is < 25%) | # (# is < 25%)
2 | O=C(OC(C(F)(F)F)C(F)(F)F)N1CCC2(CCCN2Cc2ccc(C(F)(F)F)cc2N2CCOCC2)CC1 [Example 67, 1,1,1,3,3,3-Hexafluoropropan-2-yl 1-(2-morpholino-4-(trifluoromethyl)benzyl)-1,8-diazaspiro[4.5]decane-8-carboxylate] | ### (### is ≥ 75%) | # (# is < 25%) | # (# is < 25%)
3 | O=C(OC(C(F)(F)F)C(F)(F)F)N1CCC2(CCCN2Cc2ccc(Cl)cc2N2CCC(F)(F)CC2)CC1 [Example 101, 1,1,1,3,3,3-Hexafluoropropan-2-yl 1-(4-chloro-2-(4,4-difluoropiperidin-1-yl)benzyl)-1,8-diazaspiro[4.5]decane-8-carboxylate] | ### (### is ≥ 75%) | # (# is < 25%) | # (# is < 25%)
4 | O=C(O)[C@@H]1CCCN(c2cc(C(F)(F)F)ccc2CN2CCCC23CCN(C(=O)OC(C(F)(F)F)C(F)(F)F)CC3)C1 [Example 214] | ### (### is ≥ 75%) | # (# is < 25%) | # (# is < 25%)
5 | O=C(O)[C@H]1CCCCN1c1cc(CN2CCCC23CCN(C(=O)OC(C(F)(F)F)C(F)(F)F)CC3)cc(C(F)(F)F)c1 [Example 274] | ### (### is ≥ 75%) | # (# is < 25%) | # (# is < 25%)
6 | CCOc1cc(CN2CCCC23CCN(C(=O)OC(C(F)(F)F)C(F)(F)F)CC3)ccc1Cl [Example 32, 1,1,1,3,3,3-Hexafluoropropan-2-yl 1-(4-chloro-3-ethoxybenzyl)-1,8-diazaspiro[4.5]decane-8-carboxylate] | ### (### is ≥ 75%) | # (# is < 25%) | # (# is < 25%)
7 | COc1cc(Cl)ccc1CN1CCCC12CCN(C(=O)OC(C(F)(F)F)C(F)(F)F)CC2 [Example 9, 1,1,1,3,3,3-Hexafluoropropan-2-yl 1-(4-chloro-2-methoxybenzyl)-1,8-diazaspiro[4.5]decane-8-carboxylate] | ### (### is ≥ 75%) | # (# is < 25%) | # (# is < 25%)
8 | CS(=O)(=O)N1CCN(c2cc(Cl)ccc2CN2CCCC23CCN(C(=O)OC(C(F)(F)F)C(F)(F)F)CC3)CC1 [Example 100, 1,1,1,3,3,3-Hexafluoropropan-2-yl 1-(4-chloro-2-(4-(methylsulfonyl)piperazin-1-yl)benzyl)-1,8-diazaspiro[4.5]decane-8-carboxylate] | ### (### is ≥ 75%) | # (# is < 25%) | # (# is < 25%)
9 | O=C(OC(C(F)(F)F)C(F)(F)F)N1CCC2(CCCN2Cc2cccc(N3CC4CCC(C3)O4)c2Cl)CC1 [Example 82, 1,1,1,3,3,3-Hexafluoropropan-2-yl 1-(3-(8-oxa-3-azabicyclo[3.2.1]octan-3-yl)-2-chlorobenzyl)-1,8-diazaspiro[4.5]decane-8-carboxylate] | ### (### is ≥ 75%) | # (# is < 25%) | # (# is < 25%)
10 | CC(=O)N1CCN(c2cc(Cl)ccc2CN2CCCC23CCN(C(=O)OC(C(F)(F)F)C(F)(F)F)CC3)CC1 [Example 99, 1,1,1,3,3,3-Hexafluoropropan-2-yl 1-(2-(4-acetylpiperazin-1-yl)-4-chlorobenzyl)-1,8-diazaspiro[4.5]decane-8-carboxylate] | ### (### is ≥ 75%) | # (# is < 25%) | # (# is < 25%)
11 | O=C(OC(C(F)(F)F)C(F)(F)F)N1CCC2(CCCN2Cc2cccc(OCCF)c2)CC1 [Example 27, 1,1,1,3,3,3-Hexafluoropropan-2-yl 1-(3-(2-fluoroethoxy)benzyl)-1,8-diazaspiro[4.5]decane-8-carboxylate] | ### (### is ≥ 75%) | # (# is < 25%) | # (# is < 25%)
12 | O=C(OC(C(F)(F)F)C(F)(F)F)N1CCC2(CCCN2Cc2ccc(Cl)cc2N2CC3CCC(C2)O3)CC1 [Example 75, 1,1,1,3,3,3-Hexafluoropropan-2-yl 1-(2-(8-oxa-3-azabicyclo[3.2.1]octan-3-yl)-4-chlorobenzyl)-1,8-diazaspiro[4.5]decane-8-carboxylate] | ### (### is ≥ 75%) | # (# is < 25%) | # (# is < 25%)
13 | O=C(OC(C(F)(F)F)C(F)(F)F)N1CCC2(CCCN2Cc2ccc(C(F)(F)F)c(Cl)c2)CC1 [Example 183, 1,1,1,3,3,3-Hexafluoropropan-2-yl 1-(3-chloro-4-(trifluoromethyl)benzyl)-1,8-diazaspiro[4.5]decane-8-carboxylate] | ### (### is ≥ 75%) | # (# is < 25%) | # (# is < 25%)
14 | O=C(O)C1CCN(c2cc(F)cc(CN3CCCC34CCN(C(=O)OC(C(F)(F)F)C(F)(F)F)CC4)c2)CC1 [Example 236] | ### (### is ≥ 75%) | # (# is < 25%) | # (# is < 25%)
15 | O=C(O)C1CN(c2cc(C(F)(F)F)ccc2CN2CCCC23CCN(C(=O)OC(C(F)(F)F)C(F)(F)F)CC3)CCO1 (stereo not drawn) [Example 197, 4-(2-((8-(((1,1,1,3,3,3-Hexafluoropropan-2-yl)oxy)carbonyl)-1,8-diazaspiro[4.5]decan-1-yl)methyl)-5-(trifluoromethyl)phenyl)morpholine-2-carboxylic acid] | # (# is < 25%) | # (# is < 25%) | # (# is < 25%)
16 | O=C(O)C1CCN(c2cc(C(F)(F)F)ccc2CN2CCC3(CCN(C(=O)OC(C(F)(F)F)C(F)(F)F)CC3)C2)CC1 [Example 119, 1-(2-((8-(((1,1,1,3,3,3-Hexafluoropropan-2-yl)oxy)carbonyl)-2,8-diazaspiro[4.5]decan-2-yl)methyl)-5-(trifluoromethyl)phenyl)piperidine-4-carboxylic acid] | ### (### is ≥ 75%) | # (# is < 25%) | ### (### is ≥ 75%)
17 | O=C(OC(C(F)(F)F)C(F)(F)F)N1CCC2(CCCN2Cc2ccc(Cl)cc2N2CCC(F)CC2)CC1 [Example 102, 1,1,1,3,3,3-Hexafluoropropan-2-yl 1-(4-chloro-2-(4-fluoropiperidin-1-yl)benzyl)-1,8-diazaspiro[4.5]decane-8-carboxylate] | ### (### is ≥ 75%) | # (# is < 25%) | # (# is < 25%)
18 | O=C(OC(C(F)(F)F)C(F)(F)F)N1CCC2(CCCN2Cc2cc(N3CCCC3)cc(C(F)(F)F)c2)CC1 [Example 36, 1,1,1,3,3,3-Hexafluoropropan-2-yl 1-(3-(pyrrolidin-1-yl)-5-(trifluoromethyl)benzyl)-1,8-diazaspiro[4.5]decane-8-carboxylate] | ### (### is ≥ 75%) | # (# is < 25%) | # (# is < 25%)
19 | O=C(O)[C@@H]1CCCCN1c1cc(CN2CCCC23CCN(C(=O)OC(C(F)(F)F)C(F)(F)F)CC3)cc(C(F)(F)F)c1 [Example 196, (S)-1-(3-((8-(((1,1,1,3,3,3-Hexafluoropropan-2-yl)oxy)carbonyl)-1,8-diazaspiro[4.5]decan-1-yl)methyl)-5-(trifluoromethyl)phenyl)piperidine-2-carboxylic acid] | ### (### is ≥ 75%) | # (# is < 25%) | # (# is < 25%)
20 | O=C(O)C1CCN(Cc2cc(CN3CCCC34CCN(C(=O)OC(C(F)(F)F)C(F)(F)F)CC4)cc(C(F)(F)F)c2)CC1 [Example 244] | ### (### is ≥ 75%) | # (# is < 25%) | # (# is < 25%)
21 | CN1CCCc2ccc(CN3CCCC34CCN(C(=O)OC(C(F)(F)F)C(F)(F)F)CC4)cc21 [Example 68, 1,1,1,3,3,3-Hexafluoropropan-2-yl 1-((1-methyl-1,2,3,4-tetrahydroquinolin-7-yl)methyl)-1,8-diazaspiro[4.5]decane-8-carboxylate] | ### (### is ≥ 75%) | # (# is < 25%) | # (# is < 25%)
22 | O=C(O)C1CCN(Cc2cc(C(F)(F)F)ccc2CN2CCCC23CCN(C(=O)OC(C(F)(F)F)C(F)(F)F)CC3)CC1 [Example 238] | ### (### is ≥ 75%) | # (# is < 25%) | # (# is < 25%)
